Test system: CD4+ T cells
Assay: Meta-analysis of published SARS-CoV-2 CD4 T cell epitope data curated in the IEDB (25 studies)
Format: cell-based, human
[1] = CD4RE megapool peptides (non-spike SARS-CoV-2 CD4 epitopes), dominant = recognized by 3 or more donors/different studies
[2] = CD4R (D) Megapool, non-spike antigens, dominant = recognized in 3 or more donors/studies

**Q.** 2626 (RGHLRIAGHHLGRCD) [compound 2626] was tested. Which Dominant [1] did it give?
**A.** Yes (more dominant epitopes are defined by being recognized by 3 or more donors/different studies)

**Q.** For “2295 (GAVILRGHLRIAGHHLGR) [compound 2295]”, which Dominant [2] is on record?
**A.** Yes (more dominant epitopes are defined by being recognized by 3 or more donors/different studies)

**Q.** For 2621 (MWLSYFIASFRLFAR) [compound 2621], which Dominant [1] is on record?
**A.** Yes (more dominant epitopes are defined by being recognized by 3 or more donors/different studies)

**Q.** For 2307 (SGFAAYSRYRIGNYK) [compound 2307], which Dominant [2] is on record?
**A.** Yes (more dominant epitopes are defined by being recognized by 3 or more donors/different studies)

**Q.** For 2651 (KKPRQKRTATKAYNV) [compound 2651], which Dominant [1] is on record?
**A.** Yes (more dominant epitopes are defined by being recognized by 3 or more donors/different studies)

**Q.** How did the Dominant [1] turn out when “2624 (GAVILRGHLRIAGHHLGR) [compound 2624]” was run?
**A.** Yes (more dominant epitopes are defined by being recognized by 3 or more donors/different studies)

**Q.** For 2289 (VLAAVYRINWITGGI) [compound 2289], which Dominant [2] is on record?
**A.** Yes (more dominant epitopes are defined by being recognized by 3 or more donors/different studies)

**Q.** Which Dominant [1] does the source give for 2629 (IKDLPKEITVATSRT) [compound 2629] here?
**A.** Yes (more dominant epitopes are defined by being recognized by 3 or more donors/different studies)

**Q.** For 2320 (LLLLDRLNQLESKMS) [compound 2320], which Dominant [2] is on record?
**A.** Yes (more dominant epitopes are defined by being recognized by 3 or more donors/different studies)

**Q.** Which Dominant [2] does the source give for 2321 (AAEASKKPRQKRTAT) [compound 2321] here?
**A.** Yes (more dominant epitopes are defined by being recognized by 3 or more donors/different studies)

**Q.** Which Dominant [2] does the source give for 2293 (TNILLNVPLHGTILT) [compound 2293] here?
**A.** Yes (more dominant epitopes are defined by being recognized by 3 or more donors/different studies)

**Q.** 2297 (RGHLRIAGHHLGRCD) [compound 2297] was tested. Which Dominant [2] did it give?
**A.** Yes (more dominant epitopes are defined by being recognized by 3 or more donors/different studies)

**Q.** With 2649 (LLLLDRLNQLESKMS) [compound 2649] as the substance, how does the Dominant [1] read?
**A.** Yes (more dominant epitopes are defined by being recognized by 3 or more donors/different studies)

**Q.** Which Dominant [2] does the source give for 2315 (NKDGIIWVATEGALN) [compound 2315] here?
**A.** Yes (more dominant epitopes are defined by being recognized by 3 or more donors/different studies)

**Q.** For 2635 (LGASQRVAGDSGFAA) [compound 2635], which Dominant [1] is on record?
**A.** Yes (more dominant epitopes are defined by being recognized by 3 or more donors/different studies)

**Q.** For 2292 (MWLSYFIASFRLFAR) [compound 2292], which Dominant [2] is on record?
**A.** Yes (more dominant epitopes are defined by being recognized by 3 or more donors/different studies)

**Q.** For 2330 (PSGTWLTYTGAIKLD) [compound 2330], which Dominant [2] is on record?
**A.** Yes (more dominant epitopes are defined by being recognized by 3 or more donors/different studies)

**Q.** 2291 (CLVGLMWLSYFIASF) [compound 2291] was tested. Which Dominant [2] did it give?
**A.** Yes (more dominant epitopes are defined by being recognized by 3 or more donors/different studies)

**Q.** How did the Dominant [2] turn out when 2290 (YRINWITGGIAIAMA) [compound 2290] was run?
**A.** Yes (more dominant epitopes are defined by being recognized by 3 or more donors/different studies)

**Q.** For 2300 (IKDLPKEITVATSRT) [compound 2300], which Dominant [2] is on record?
**A.** Yes (more dominant epitopes are defined by being recognized by 3 or more donors/different studies)

**Q.** For 2303 (SRTLSYYKLGASQRV) [compound 2303], which Dominant [2] is on record?
**A.** Yes (more dominant epitopes are defined by being recognized by 3 or more donors/different studies)

**Q.** 2319 (DAALALLLLDRLNQL) [compound 2319] was tested. Which Dominant [2] did it give?
**A.** Yes (more dominant epitopes are defined by being recognized by 3 or more donors/different studies)

**Q.** For 2316 (KDGIIWVATEGALNT) [compound 2316], which Dominant [2] is on record?
**A.** Yes (more dominant epitopes are defined by being recognized by 3 or more donors/different studies)

**Q.** Which Dominant [1] does the source give for 2654 (LIRQGTDYKHWPQIA) [compound 2654] here?
**A.** Yes (more dominant epitopes are defined by being recognized by 3 or more donors/different studies)

**Q.** For 2296 (LRGHLRIAGHHLGRC) [compound 2296], which Dominant [2] is on record?
**A.** Yes (more dominant epitopes are defined by being recognized by 3 or more donors/different studies)

**Q.** With 2312 (YYRRATRRIRGGDGK) [compound 2312] as the substance, how does the Dominant [2] read?
**A.** Yes (more dominant epitopes are defined by being recognized by 3 or more donors/different studies)

**Q.** With 2309 (SWFTALTQHGKEDLK) [compound 2309] as the substance, how does the Dominant [2] read?
**A.** Yes (more dominant epitopes are defined by being recognized by 3 or more donors/different studies)

**Q.** How did the Dominant [2] turn out when “2329 (GMEVTPSGTWLTYTGAIKLD) [compound 2329]” was run?
**A.** Yes (more dominant epitopes are defined by being recognized by 3 or more donors/different studies)

**Q.** 2627 (IAGHHLGRCDIKDLP) [compound 2627] was tested. Which Dominant [1] did it give?
**A.** Yes (more dominant epitopes are defined by being recognized by 3 or more donors/different studies)

**Q.** How did the Dominant [2] turn out when 2288 (QFAYANRNRFLYIIK) [compound 2288] was run?
**A.** Yes (more dominant epitopes are defined by being recognized by 3 or more donors/different studies)

**Q.** Which Dominant [1] does the source give for 2619 (YRINWITGGIAIAMA) [compound 2619] here?
**A.** Yes (more dominant epitopes are defined by being recognized by 3 or more donors/different studies)

**Q.** With 2662 (ILLNKHIDAYKTFPP) [compound 2662] as the substance, how does the Dominant [1] read?
**A.** Yes (more dominant epitopes are defined by being recognized by 3 or more donors/different studies)

**Q.** 2647 (AGNGGDAALALLLLD) [compound 2647] was tested. Which Dominant [1] did it give?
**A.** Yes (more dominant epitopes are defined by being recognized by 3 or more donors/different studies)

**Q.** “2658 (GMEVTPSGTWLTYTGAIKLD) [compound 2658]” was tested. Which Dominant [1] did it give?
**A.** Yes (more dominant epitopes are defined by being recognized by 3 or more donors/different studies)

**Q.** With “2631 (TSRTLSYYKLGASQRVA) [compound 2631]” as the substance, how does the Dominant [1] read?
**A.** Yes (more dominant epitopes are defined by being recognized by 3 or more donors/different studies)

**Q.** For 2327 (WPQIAQFAPSASAFF) [compound 2327], which Dominant [2] is on record?
**A.** Yes (more dominant epitopes are defined by being recognized by 3 or more donors/different studies)
